Literature values in patent US20100209332A1, “Nonaqueous Chlorine Dioxide-Generating Compositions and Methods Related Thereto” (BASF Catalysts LLC, priority 2009, published 2010).
“And” between values parts separate entries of the source, which are not always exact repeats. Equal entries are not always repeated.

Details: sources: † clippercontrols.com URL, § Handbook of Chemistry and Physics, 52nd Ed.

SMILES	Dielectric Constant, at 18-25 deg C.
CCCCO [Butyl alcohol]	17.1-17.8^†,§
O [Water]	80.4 and 78.5
OCC(O)CO [Glycerine]	42.5^†,§

Results, then the compound that gave them:

Dielectric Constant, at 18-25 deg C.	SMILES
3.2^†	CCCCCCCC(=O)O [Octanoic acid]
2.5^†,§	CCCCCCCC/C=C\CCCCCCCC(=O)O [Oleic acid]
18.3 and 20.1	CC(C)O [Isopropanol]
32^†,§	CC(O)CO (stereo not shown) [Propylene glycol]
